From patent publication EP4772497A1, “POLYMORPHS OF NITROGEN-CONTAINING HETEROCYCLIC COMPOUNDS, AND USES THEREOF” (BNH Research Co., Ltd., priority 2023, dated 2025)
Values after ≈ are worked out from the molar mass of the structure shown.

Assays:
[1] = Solubility assay of crystalline form A in 17 solvents; format: physicochemical; conditions: thermodynamic from solid
Description: For solubility assay, about 5 mg or about 10 mg of crystalline form A was weighed into a 2 mL glass vial. A 20 µL aliquot of each of the 17 solvents listed in Table 8 was added to the vial to dissolve the drug substance. For about 5 mg of crystalline form A, the drug substance was dissolved at 25°C; and for about 10 mg of crystalline form A, the drug substance was dissolved at 50°C. To aid dissolution, vortexing and sonication were applied to facilitate dissolution, and the maximum volume of each solvent added was 1 mL.

[2] = Parallel artificial membrane permeability assay (PAMPA) for BBB permeability; format: in vitro ADME; conditions: PAMPA, pH 7.2, BBB lipid membrane, PBS (pH 7.2); read-out: PAMPA Pe
Description: • PAMPA: PMBBB-096 Kit • Assay format: 96-well plate • Reference substance: Imipramine (H) (10 µM) • Test substance concentration: 10 µM • Number of replicates: 3 • Reaction time: 6 hours at 25°C on a shaker (75 - 80 rpm) • Analytical method: LC-MS/MS • Data processing: Pe (cm/s)
The test compounds (crystalline forms A and C) were dissolved in DMSO at a concentration of 10 mM […] to prepare standard solutions. Next, dried brain lipids were resuspended in 600 µL dodecane to prepare a BBB lipid solution in dodecane. Pipetting up and down was repeated (~100 times) until all dried brain lipids were dissolved (vortexing or sonication may be helpful). A 10 µM reaction solution in PBS containing 5% DMSO was prepared.
The experiments were conducted in a 96-well plate using the prepared reaction solution of each test compound and the BBB lipid solution according to the following assay procedure. • 1. 500 µL of a 500 µM test compound solution (prepared by mixing 25 µL of a 10 mM test compound + 475 µL of PBS (pH 7.2) in DMSO) was prepared in a separate centrifuge tube. When a permeability control was used, it was diluted to 500 µM using PBS (prepared by mixing 25 µL of permeability control + 475 µL of PBS (pH 7.2)). • 2. For each test compound and control, a 200 µM equilibrium standard was prepared in a separate tube (by mixing 80 µL of 500 µM test compound or control with 120 µL of PBS (pH 7.2)). […] The absorbance spectrum from 200 nm to 500 nm was measured at 10 nm intervals to determine the peak absorbance of the test compounds. […] The peak absorbances of the high-permeability and low-permeability controls are 250 nm and 270 nm, respectively.
For the compounds and permeability controls, the permeability rate (Pe) was determined using the following equation: Pe = C × −ln(1−(ODA)/(ODE))cm/s [formula]
Here, ODA is the absorbance of the acceptor solution minus the blank, and ODE is the absorbance of the equilibrium standard minus the blank. For each absorbance value, the peak absorbance determined for each test was used. […]

solubility ([1]; organic solvent or mixture, 1,4-Dioxane, 25°C): > 250 mg/mL | solubility ([1]; organic solvent or mixture, 1,4-Dioxane, 50°C): > 500 mg/mL | solubility ([1]; organic solvent or mixture, 2-MeTHF, 25°C): > 250 mg/mL | solubility ([1]; organic solvent or mixture, 2-MeTHF, 50°C): > 500 mg/mL | solubility ([1]; organic solvent or mixture, Acetone, 25°C): 125 to 250 mg/mL (≈ 398 to 797 mM) | solubility ([1]; organic solvent or mixture, Acetone, 50°C): > 500 mg/mL | solubility ([1]; organic solvent or mixture, Acetonitrile, 25°C): 41 to 50 mg/mL (≈ 131 to 159 mM) | solubility ([1]; organic solvent or mixture, Acetonitrile, 50°C): > 500 mg/mL | solubility ([1]; organic solvent or mixture, DMF, 25°C): > 250 mg/mL | solubility ([1]; organic solvent or mixture, DMF, 50°C): > 500 mg/mL | solubility ([1]; organic solvent or mixture, DMSO, 25°C): > 250 mg/mL | solubility ([1]; organic solvent or mixture, DMSO, 50°C): > 500 mg/mL | solubility ([1]; organic solvent or mixture, Dichloromethane, 25°C): > 250 mg/mL | solubility ([1]; organic solvent or mixture, Dichloromethane, 50°C): > 500 mg/mL | solubility ([1]; organic solvent or mixture, Ethanol, 25°C): 125 to 250 mg/mL (≈ 398 to 797 mM) | solubility ([1]; organic solvent or mixture, Ethanol, 50°C): > 500 mg/mL | solubility ([1]; organic solvent or mixture, Ethyl acetate, 25°C): 41 to 50 mg/mL (≈ 131 to 159 mM) | solubility ([1]; organic solvent or mixture, Ethyl acetate, 50°C): 250 to 500 mg/mL (≈ 797 to 1590 mM) | solubility ([1]; organic solvent or mixture, Heptane, 25°C): < 5 mg/mL | solubility ([1]; organic solvent or mixture, Heptane, 50°C): < 10 mg/mL | solubility ([1]; organic solvent or mixture, Isopropyl acetate, 25°C): 63 to 83 mg/mL (≈ 201 to 265 mM) | solubility ([1]; organic solvent or mixture, Isopropyl acetate, 50°C): 125 to 167 mg/mL (≈ 398 to 532 mM) | solubility ([1]; organic solvent or mixture, MTBE, 25°C): 16 to 20 mg/mL (≈ 51 to 63.7 mM) | solubility ([1]; organic solvent or mixture, MTBE, 50°C): 33 to 50 mg/mL (≈ 105 to 159 mM) | solubility ([1]; organic solvent or mixture, Methanol, 25°C): > 250 mg/mL | solubility ([1]; organic solvent or mixture, Methanol, 50°C): > 500 mg/mL | solubility ([1]; organic solvent or mixture, Methyl ethyl ketone, 25°C): 83 to 125 mg/mL (≈ 265 to 398 mM) | solubility ([1]; organic solvent or mixture, Methyl ethyl ketone, 50°C): 250 to 500 mg/mL (≈ 797 to 1590 mM) | solubility ([1]; organic solvent or mixture, Tetrahydrofuran, 25°C): > 250 mg/mL | solubility ([1]; organic solvent or mixture, Tetrahydrofuran, 50°C): > 500 mg/mL | solubility ([1]; organic solvent or mixture, Toluene, 25°C): 17 to 25 mg/mL (≈ 54.2 to 79.7 mM) | solubility ([1]; organic solvent or mixture, Toluene, 50°C): 50 to 100 mg/mL (≈ 159 to 319 mM) | solubility ([1]; Water, 25°C): < 5 mg/mL | solubility ([1]; Water, 50°C): < 10 mg/mL | Papp at 6 h, 10 µM [2]: 0.00925 ×10⁻⁶ cm/s
Compound: C[C@@H]1CC[C@H](C(=O)O)CN1C(=O)Cc1ccc(F)cc1Cl [Crystalline form A, (3S,6R)-1-(2-(2-chloro-4-fluorophenyl)acetyl)-6-methylpiperidine-3-carboxylic acid]
